# Results reported in patent publication US7070892B2, “Imaging members” (Xerox Corporation, priority 2004, dated 2006).
# Assay: solubility of the electron transport component (CFM derivative) in organic solvents
# Assay type: physicochemical
Compound,solubility of the electron transport component (solvent is butylacetate),solubility of the electron transport component (solvent is tetrahydrofuran)
"CCCCC(CC)COC(=O)c1cccc2c1-c1ccccc1C2=C(C#N)C#N (stereo not shown) [R8 is 2-ethylhexyl, 9-dicyanomethylenefluorene-4-(2-ethylhexyl)carboxylate]",25 grams/liter,205 grams/liter
"CCCCOC(=O)c1cccc2c1-c1ccccc1C2=C(C#N)C#N [R8 is n-butyl, (4-n-butoxycarbonyl-9-fluorenylidene)malononitrile]",8 grams/liter,105 grams/liter
